# Measured values reported in ChEMBL document CHEMBL3885861, “Open TG-GATES”.
# Species: Rattus norvegicus
# Assay: Open TG-GATES - Regimen: Daily Repeat
# Assay type: toxicity, organism-based, Sprague-Dawley
# Parameters: regimen Daily Repeat, gender Male, age 6 weeks
# Settings: in vivo, po, 0 mg/kg, route gavage, dose level Control; for APTT / Bas / Eos / Fbg / Hb / Ht / Lym / MCH / MCHC / MCV / Mono / Neu / PT / Plat / RBC / Ret / WBC: tissue Blood; for KIDNEY_L / KIDNEY_R / KIDNEY_TOTAL: tissue Kidney; for LIVER: tissue Liver; for ALP / ALT / AST / BUN / CRE / DBIL / GLC / IP / K / LDH / Na / PL / RALB / TBIL / TC / TP / gamma-GTP / TG: tissue Plasma
structure (smiles),measurement,setting,value
Clc1ccccc1CN1CCc2sccc2C1 [TICLOPIDINE],TERMINAL_BW,"72 h, time 3 day",230.2 g
same,APTT,"72 h, time 3 day",20.4 s
same,Bas,"72 h, time 3 day",0.6%
same,Eos,"72 h, time 3 day",1%
same,Fbg,"72 h, time 3 day",211 mg/dL
same,Hb,"72 h, time 3 day",13.6 g/dL
same,Ht,"72 h, time 3 day",38.2%
same,Lym,"72 h, time 3 day",77.6%
same,MCH,"72 h, time 3 day",21.9 pg
same,MCHC,"72 h, time 3 day",35.8%
same,MCV,"72 h, time 3 day",61.3 fL
same,Mono,"72 h, time 3 day",3.2%
same,Neu,"72 h, time 3 day",17%
same,PT,"72 h, time 3 day",11.7 s
same,Plat,"72 h, time 3 day",127.8 x10_4/uL
same,RBC,"72 h, time 3 day",622.6 x10_4/ul
same,Ret,"72 h, time 3 day",6.2%
same,WBC,"72 h, time 3 day",129 x10_2/uL
same,KIDNEY_L,"72 h, time 3 day",1.1 g
same,KIDNEY_R,"72 h, time 3 day",1 g
same,KIDNEY_TOTAL,"72 h, time 3 day",2.1 g
same,LIVER,"72 h, time 3 day",11.1 g
same,ALP,"72 h, time 3 day",1033.4 IU/L
same,ALT,"72 h, time 3 day",42.8 IU/L
same,AST,"72 h, time 3 day",70.2 IU/L
same,BUN,"72 h, time 3 day",17 mg/dL
same,CRE,"72 h, time 3 day",0.4 mg/dL
same,DBIL,"72 h, time 3 day",0.07 mg/dL
same,GLC,"72 h, time 3 day",205.4 mg/dL
same,IP,"72 h, time 3 day",8.6 mg/dL
same,K,"72 h, time 3 day",4.4 meq/L
same,LDH,"72 h, time 3 day",128.8 IU/L
same,Na,"72 h, time 3 day",141.6 meq/L
same,PL,"72 h, time 3 day",148.6 mg/dL
same,RALB,"72 h, time 3 day",3.4 g/dL
same,TBIL,"72 h, time 3 day",0.1 mg/dL
same,TC,"72 h, time 3 day",69.8 mg/dL
same,TP,"72 h, time 3 day",5.5 g/dL
same,gamma-GTP,"72 h, time 3 day",1.2 IU/L
same,TERMINAL_BW,"[…], time 7 day",252.6 g
same,TERMINAL_BW,"[…], time 14 day",313.6 g
same,TERMINAL_BW,"[…], time 28 day",400.8 g
same,APTT,"[…], time 7 day",20.7 s
same,Bas,"[…], time 7 day",1%
same,Eos,"[…], time 7 day",1%
same,Fbg,"[…], time 7 day",224.2 mg/dL
same,Hb,"[…], time 7 day",14 g/dL
same,Ht,"[…], time 7 day",38.4%
same,Lym,"[…], time 7 day",81.6%
same,MCH,"[…], time 7 day",21.3 pg
same,MCHC,"[…], time 7 day",36.4%
same,MCV,"[…], time 7 day",58.5 fL
same,Mono,"[…], time 7 day",2.4%
same,Neu,"[…], time 7 day",13.4%
same,PT,"[…], time 7 day",11.4 s
same,Plat,"[…], time 7 day",127 x10_4/uL
same,RBC,"[…], time 7 day",658 x10_4/ul
same,Ret,"[…], time 7 day",4.7%
same,WBC,"[…], time 7 day",103.5 x10_2/uL
same,APTT,"[…], time 14 day",20.6 s
same,Bas,"[…], time 14 day",1%
same,Eos,"[…], time 14 day",0.8%
same,Fbg,"[…], time 14 day",220.6 mg/dL
same,Hb,"[…], time 14 day",14.3 g/dL
same,Ht,"[…], time 14 day",39.5%
same,Lym,"[…], time 14 day",78.8%
same,MCH,"[…], time 14 day",21.1 pg
same,MCHC,"[…], time 14 day",36.2%
same,MCV,"[…], time 14 day",58.1 fL
same,Mono,"[…], time 14 day",2.8%
same,Neu,"[…], time 14 day",16%
same,PT,"[…], time 14 day",11.6 s
same,Plat,"[…], time 14 day",116.1 x10_4/uL
same,RBC,"[…], time 14 day",681.2 x10_4/ul
same,Ret,"[…], time 14 day",4.3%
same,WBC,"[…], time 14 day",121.8 x10_2/uL
same,APTT,"[…], time 28 day",18.1 s
same,Bas,"[…], time 28 day",0.8%
same,Eos,"[…], time 28 day",1%
same,Fbg,"[…], time 28 day",233.4 mg/dL
same,Hb,"[…], time 28 day",15.5 g/dL
same,Ht,"[…], time 28 day",41.4%
same,Lym,"[…], time 28 day",80.2%
same,MCH,"[…], time 28 day",20.9 pg
same,MCHC,"[…], time 28 day",37.5%
same,MCV,"[…], time 28 day",55.7 fL
same,Mono,"[…], time 28 day",2%
same,Neu,"[…], time 28 day",15.4%
same,PT,"[…], time 28 day",11.5 s
same,Plat,"[…], time 28 day",106.8 x10_4/uL
same,RBC,"[…], time 28 day",743.4 x10_4/ul
same,Ret,"[…], time 28 day",2.7%
same,WBC,"[…], time 28 day",97 x10_2/uL
same,KIDNEY_L,"[…], time 7 day",1.1 g
same,KIDNEY_R,"[…], time 7 day",1 g
same,KIDNEY_TOTAL,"[…], time 7 day",2.1 g
same,KIDNEY_L,"[…], time 14 day",1.2 g
same,KIDNEY_R,"[…], time 14 day",1.2 g
same,KIDNEY_TOTAL,"[…], time 14 day",2.4 g
same,KIDNEY_L,"[…], time 28 day",1.4 g
same,KIDNEY_R,"[…], time 28 day",1.3 g
same,KIDNEY_TOTAL,"[…], time 28 day",2.7 g
same,LIVER,"[…], time 7 day",11.3 g
same,LIVER,"[…], time 14 day",13.2 g
same,LIVER,"[…], time 28 day",16.3 g
same,ALP,"[…], time 7 day",1176 IU/L
same,ALT,"[…], time 7 day",44.8 IU/L
same,AST,"[…], time 7 day",81.6 IU/L
same,BUN,"[…], time 7 day",15 mg/dL
same,CRE,"[…], time 7 day",0.4 mg/dL
same,DBIL,"[…], time 7 day",0.066 mg/dL
same,GLC,"[…], time 7 day",195.4 mg/dL
same,IP,"[…], time 7 day",6.9 mg/dL
same,K,"[…], time 7 day",3.9 meq/L
same,LDH,"[…], time 7 day",144.6 IU/L
same,Na,"[…], time 7 day",141.4 meq/L
same,PL,"[…], time 7 day",153.4 mg/dL
same,RALB,"[…], time 7 day",3.4 g/dL
same,TBIL,"[…], time 7 day",0.1 mg/dL
same,TC,"[…], time 7 day",77.8 mg/dL
same,TG,"[…], time 7 day",81.6 mg/dL
same,TP,"[…], time 7 day",5.7 g/dL
same,gamma-GTP,"[…], time 7 day",1.2 IU/L
same,ALP,"[…], time 14 day",840.4 IU/L
same,ALT,"[…], time 14 day",33.6 IU/L
same,AST,"[…], time 14 day",70.2 IU/L
same,BUN,"[…], time 14 day",17.2 mg/dL
same,CRE,"[…], time 14 day",0.4 mg/dL
same,DBIL,"[…], time 14 day",0.056 mg/dL
same,GLC,"[…], time 14 day",215.8 mg/dL
same,IP,"[…], time 14 day",7.5 mg/dL
same,K,"[…], time 14 day",4.4 meq/L
same,LDH,"[…], time 14 day",155.2 IU/L
same,Na,"[…], time 14 day",142 meq/L
same,PL,"[…], time 14 day",138 mg/dL
same,RALB,"[…], time 14 day",3.4 g/dL
same,TBIL,"[…], time 14 day",0.098 mg/dL
same,TC,"[…], time 14 day",65.2 mg/dL
same,TG,"[…], time 14 day",114 mg/dL
same,TP,"[…], time 14 day",5.6 g/dL
same,gamma-GTP,"[…], time 14 day",1.2 IU/L
same,ALP,"[…], time 28 day",742.8 IU/L
same,ALT,"[…], time 28 day",29.6 IU/L
same,AST,"[…], time 28 day",58.6 IU/L
same,BUN,"[…], time 28 day",18.2 mg/dL
same,CRE,"[…], time 28 day",0.5 mg/dL
same,DBIL,"[…], time 28 day",0.068 mg/dL
same,GLC,"[…], time 28 day",214.4 mg/dL
same,IP,"[…], time 28 day",6.7 mg/dL
same,K,"[…], time 28 day",3.8 meq/L
same,LDH,"[…], time 28 day",168.2 IU/L
same,Na,"[…], time 28 day",141.6 meq/L
same,PL,"[…], time 28 day",133.2 mg/dL
same,RALB,"[…], time 28 day",3.6 g/dL
same,TBIL,"[…], time 28 day",0.1 mg/dL
same,TC,"[…], time 28 day",63 mg/dL
same,TG,"[…], time 28 day",126.8 mg/dL
same,TP,"[…], time 28 day",6.1 g/dL
same,gamma-GTP,"[…], time 28 day",0.8 IU/L
